Here are results for one compound from PMC9103596, “The inhibitory effect of boric acid on hypoxia-regulated tumour-associated carbonic anhydrase IX” (Journal of Enzyme Inhibition and Medicinal Chemistry, 2022).

The structures appear in SMILES notation. Read-outs that look alike come from different tables or passages of the source.

One experiment deals with hCA I (Homo sapiens, UniProt P00915). The note with it: read-out: KI hCA I; stopped-flow CO2 hydrase assay, mean from three assays. The protocol: (§1) The uncatalysed rates were determined in the same manner and subtracted from the total observed rates. Stock solutions of BA (or other inhibitors) (100 mM) were prepared in distilled – deionised water, and dilutions up to 0.01 nM were done thereafter with the assay buffer. Inhibitor and enzyme solutions were preincubated together for 6 h at room temperature prior to assay in order to allow for the formation of the E–I complex. The inhibition constants were obtained by nonlinear least-squares methods using PRISM 3 and the Cheng–Prusoff equation, as reported earlier, and represent the mean from at least three different determinations.
Chain of hCA I (P00915 whole entry): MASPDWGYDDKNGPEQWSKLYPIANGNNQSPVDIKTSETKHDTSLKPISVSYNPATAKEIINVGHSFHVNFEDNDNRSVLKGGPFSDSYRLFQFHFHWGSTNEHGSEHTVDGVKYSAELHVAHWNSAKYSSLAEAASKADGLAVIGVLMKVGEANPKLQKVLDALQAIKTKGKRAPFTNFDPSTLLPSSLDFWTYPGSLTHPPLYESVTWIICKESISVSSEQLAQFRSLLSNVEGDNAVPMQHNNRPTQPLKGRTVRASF

The next experiment has as its target hCA II (Homo sapiens, UniProt P00918). The note with it: read-out: KI hCA II; stopped-flow CO2 hydrase assay, mean from three assays. The procedure:
as §1

The target of another experiment is hCA IX (Homo sapiens, UniProt Q16790). To be noted: read-out: KI hCA IX. The protocol:
as §1

A further experiment concerns the target hCA XII (Homo sapiens, UniProt O43570). The note with it: read-out: KI hCA XII; stopped-flow CO2 hydrase assay, mean from three assays. The protocol:
as §1

Experiment [1] has as its system A375 (human malignant melanoma) cells. To be noted: read-out: IC50 cell viability; A375, WST-1, 48 h. The protocol:
(§2) Cells were incubated at 37 °C and 5% CO2 in 25cm[3] flasks. On reaching 80–90% confluence, cell harvesting was performed by washing cells in phosphate-buffered saline (PBS) and then detached from the flask surface using trypsin-EDTA. Cell count was determined using a hematocytometer. Two separate cultures each for both HT29 and A375 were grown, one under normoxic conditions and the second one under hypoxic conditions. The normoxic cultures for HT29 and A375 were grown and incubated at normoxic conditions (37 °C and 5% CO2). […] The hypoxic chamber was placed in a 37 °C incubator for 4 h.
(§3) WST-1 reagent was used to measure mitochondrial dehydrogenase activity and determine cell viability. A 0.5 M stock of B(OH)3 was prepared by dissolving 0.309 g of B(OH)3 in 10 ml of distilled water. HT29 and A375 cells were seeded on 96-well plates and incubated for 24 h, allowing them to adhere to the wells before treatment with B(OH)3. Cells were then treated with 2.5, 5, 10, 25 50, 100, and 200 mM B(OH)3 and topped to 100 µL with a prepared cell medium (one well remaining as an untreated, negative control). The plates were then incubated for 24 and 48 h periods. After each period, […] WST-1 reagent was added to each well and then the plate was incubated for another 3–4 h at 37 °C with 5% CO2. The plates were read by using an Epoch microplate reader (BioTek, Cambridge, MA) with a wavelength of 450 nm. The results were analysed by using GraphPad Prism version 9 (Graphpad Software Inc., La Jolla, CA), for determining the IC50 values, with AZA as standard CA inhibitor. HT29 and A375 cells were seeded 0.3 × 10^6 cells/well into two separate six-well plates. On each well-plate, one column was treated with BA, the second was treated with AZA, and the third column was left untreated, serving as a control.

The subject of experiment [2] is CA IX levels in A375 cells. The note with it: treated at IC50 concentration for 24 h, ELISA. The protocol: as §2, §3
For orientation: An ELISA detects its analyte on a solid surface through an enzyme-linked reagent.

Experiment [3] concerns HT29 (human colon cancer) cells. The note with it: read-out: IC50 cell viability. The protocol:
as §2, §3

The test system of experiment [4] is CA IX levels in HT29 cells. The note with it: treated at IC50 concentration for 24 h, ELISA.
Method: Cells were incubated at 37 °C and 5% CO2 in 25cm[3] flasks. On reaching 80–90% confluence, cell harvesting was performed by washing cells in phosphate-buffered saline (PBS) and then detached from the flask surface using trypsin-EDTA. Cell count was determined using a hematocytometer. Two separate cultures each for both HT29 and A375 were grown, one under normoxic conditions and the second one under hypoxic conditions. The normoxic cultures for HT29 and A375 were grown and incubated at normoxic conditions (37 °C and 5% CO2). […] The hypoxic chamber was placed in a 37 °C incubator for 4 h. Hypoxia conditions were confirmed by detecting HIF-1α protein level by using an ELISA kit (Shangai Koon, Shanghai, China).
HT29 and A375 cells were seeded 0.3 × 10^6 cells/well into two separate six-well plates. On each well-plate, one column was treated with BA, the second was treated with AZA, and the third column was left untreated, serving as a control. […] The plates were then set aside to incubate for 24 h under normoxic conditions (37 °C and 5% CO2).
The lysates were collected by centrifugation at 13,000 × g for 15 min at 4 °C. […] These protein levels were determined by using CA IX ELISA kit and HIF1α ELISA kit according to the manufacturer’s instructions. […] Of 50 µL of the stop solution was then added and the microplates were read at 450 nm using the Epoch micro-plate reader (BioTek, Cambridge, MA).
Experiment [5] concerns androgen-sensitive LNCaP prostate cancer cells. The note with it: nude mice injected with LNCaP cells, treated with BA; cited from earlier work.

The term Ki denotes a dissociation constant, usually derived from enzyme kinetics or from competition with a known ligand. What is called IC50 is the midpoint of a concentration-inhibition curve.

Chain of hCA XII (O43570 25-354): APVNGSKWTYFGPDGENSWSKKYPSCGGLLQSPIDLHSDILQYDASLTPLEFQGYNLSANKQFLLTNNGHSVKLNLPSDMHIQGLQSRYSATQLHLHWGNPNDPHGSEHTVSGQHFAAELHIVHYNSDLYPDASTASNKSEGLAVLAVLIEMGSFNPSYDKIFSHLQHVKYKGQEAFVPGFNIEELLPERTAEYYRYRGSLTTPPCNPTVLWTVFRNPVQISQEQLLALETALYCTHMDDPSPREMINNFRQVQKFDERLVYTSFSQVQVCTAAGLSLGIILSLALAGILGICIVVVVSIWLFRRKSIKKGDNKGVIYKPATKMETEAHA

For the compound `OB(O)O` [Boric acid], the Ki turned out to be 29.9 mM on hCA I, 41 mM at hCA II, 2.8 mM at hCA IX and 6.2 mM at hCA XII. Moreover, the IC50 in experiment [1] was determined as 15.5 mM; in [3] (HT29, WST-1, 24 h) it was 19.6 mM; in [3] (HT29, WST-1, 48 h) it was 23 mM. Besides, the “CA IX levels compared to control” value in experiment [2] (A375 hypoxic cell cultures) is listed as “significantly reduced”; in experiment [2] (A375 normoxic cell cultures), “significantly reduced”; in experiment [4] (HT29 hypoxic cell cultures) it was “increase”; in [4] (HT29 normoxic cell cultures), “slight increase”. Also, the “decrease in plasma PSA levels” value in experiment [5] is reported as 88%. Also, in experiment [5], the “decrease in tumour growth” value is recorded as 25 − 35%.
